In PubChem BioAssay (NCI) one finds GI50 and TGI data, which are given here for eleven compounds.

Holding throughout (assay): growth of human tumour cells (NCI), 48 h
Test [1] has as its system T-47D breast.
In test [2] the test system is SK-OV-3 ovarian.
Test [3] has as its system RPMI-8226 leukemia.
The test system of test [4] is MDA-MB-435.
For test [5], the system named is SNB-19 CNS.
For test [6], the system named is HS 578T breast.
The subject of test [7] is KM12 colon.

Each structure is given as a SMILES string.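 Values below derive from 48-hour exposures of cells grown in 96-well plates, with endpoints linearly interpolated between the two concentrations bracketing the appropriate inhibition level. Here, GI50 denotes the concentration required for 50% inhibition of growth. TGI is the concentration that stops growth completely.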

For the compound `Cc1cc2c3ccc(C)[n+](C)c3ccc2n1C`, the GI50 in test [1] was 4.76 µM; in test [2], 2.88 µM; in test [3] it was 1.32 µM; in test [4], 5.12 µM; in test [5] it was 2 µM; in test [6], 3.17 µM. Moreover, the GI50 in test [7] was 0.723 µM. Moreover, the TGI in test [1] was 49 µM; in test [2], 9.41 µM; in test [3], 23.3 µM; in test [4], 21.9 µM; in test [5], 14 µM; in test [6], 24.3 µM. The TGI in test [7] stood at 3.46 µM.
For `O=C(C1CCCCC1)[C@@H]1[C@]2(C(=O)NC3CCCCC32)[C@@H]2CCCN2[C@@]12C(=O)NC1CCC(Cl)CC12` (stereo partly drawn), the GI50 was 107 µM in test [1]; 145 µM in test [2]; 32.6 µM in test [3]; 112 µM in test [4]; 148 µM in test [5]; 153 µM in test [6]. Moreover, the GI50 in test [7] is 130 µM. The TGI in test [1] was determined as 279 µM; in test [2] it was 284 µM; in test [3] it was 103 µM; in test [4] it was 245 µM; in test [5], 299 µM; in test [6], 422 µM. In addition, the TGI in test [7] came out at 273 µM.
In the case of `COc1cc2c(c(OC)c1OC)-c1ncc3cc(OC)c(OC)c(OC)c3c1C2`, the GI50 in test [1] is 50.4 µM; in test [2], 47.5 µM; in test [3] it was more than 100 µM; in test [4], 20.8 µM; in test [5] it was 28.9 µM; in test [6], 29.7 µM. Also, the GI50 in test [7] was 17.8 µM. Also, the TGI was more than 100 µM in test [1]; more than 100 µM in test [2]; more than 100 µM in test [3]; 51 µM in test [4]; 94.2 µM in test [5]; 65.6 µM in test [6]. In test [7], this compound returned a TGI of 63 µM.
Regarding `COc1cccc(C=Nc2cc(C)ccn2)c1O.COc1cccc(C=Nc2cc(C)ccn2)c1O.[Cu]`, the GI50 in test [1] is 12 µM; in test [2], 13.6 µM; in test [3], 17.6 µM; in test [4], 13.6 µM; in test [5] it was 19.7 µM; in test [6] it was 19 µM. Moreover, the GI50 in test [7] is 18.5 µM. The TGI in test [1] was 33.1 µM; in test [2], 28.1 µM; in test [3] it was more than 100 µM; in test [4], 45.9 µM; in test [5], 60.5 µM; in test [6], 67.6 µM. In test [7], this compound displayed a TGI of 52.5 µM.
Take `CC(=O)NC1=C(OS(=O)(=O)c2ccc(C)cc2)CN(C)C1=O`: the TGI in test [1] is 9.35 µM; in test [2], 21 µM; in test [3], 5.77 µM; in test [4] it was 16.7 µM; in test [5], 14.9 µM; in test [6], more than 42.2 µM. For the same compound, in test [7], the TGI was found to be 14.3 µM.
In the case of `CCN1CCC(CCOC)(CN2c3ccccc3Sc3ccc(Cl)cc32)C1` (stereo not drawn), the GI50 is 2.05 µM in test [1]; 1.91 µM in test [2]; 2.52 µM in test [3]; 1.74 µM in test [4]; 2.65 µM in test [5]; 2.12 µM in test [6]. The GI50 in test [7] was 1.79 µM. Besides, the TGI came out at 4.6 µM in test [1]; 3.88 µM in test [2]; 5.7 µM in test [3]; 3.35 µM in test [4]; 7.31 µM in test [5]; 6.55 µM in test [6]. The same compound registered a TGI in test [7] of 3.43 µM.
In the case of `O=C(c1ccccc1)C(CN1CCOCC1)c1ccccc1` (stereo not drawn), the GI50 in test [1] is 3 µM; in test [2], 5.18 µM; in test [3], 0.793 µM; in test [4], 1.35 µM; in test [5], 3.76 µM; in test [6], 1.77 µM. For the same compound, the GI50 in test [7] is 1.8 µM. Moreover, the TGI in test [1] came out at 9.87 µM; in test [2] it was 17.9 µM; in test [3] it was 4.74 µM; in test [4] it was 3.36 µM; in test [5], 15.6 µM; in test [6], 8.37 µM. The same compound displayed a TGI in test [7] of 3.73 µM.
With `C/C(=N\Nc1ccc2ccccc2n1)c1ccccn1`, the GI50 is less than 0.0332 µM in test [1]; 0.132 µM in test [2]; 0.0897 µM in test [3]; 0.223 µM in test [4]; 0.198 µM in test [5]; 1.94 µM in test [6]. Besides, in test [7], the GI50 was 0.115 µM. Further, the TGI stood at 3.2 µM in test [1]; 13.6 µM in test [2]; 2.89 µM in test [3]; 8.09 µM in test [4]; 14.3 µM in test [5]; 30.5 µM in test [6]. In test [7], this compound yielded a TGI of 9.12 µM.
`N/C(=N\N=C\c1ccc(-c2ccccc2)cc1)N[N+](=O)[O-]`: the GI50 in test [1] is 4.8 µM; in test [2], 3.87 µM; in test [3], 4.04 µM; in test [4], 0.226 µM; in test [6], 1.43 µM; in test [7], 1.27 µM. In addition, the TGI in test [1] is more than 100 µM; in test [2], more than 100 µM; in test [3] it was more than 100 µM; in test [4] it was 0.599 µM; in test [5] it was more than 100 µM; in test [6], more than 61.3 µM. The same compound registered a TGI in test [7] of more than 100 µM.
Turning to `C=CC(=O)N(C)[C@H]1C[C@H]2OC(C)(C1OC)n1c3ccccc3c3c4c(c5c6ccccc6n2c5c31)C(=O)NC4` (stereo partly drawn), the GI50 in test [1] was 0.0774 µM; in test [2], 0.0955 µM; in test [3] it was 0.103 µM; in test [4], 0.364 µM; in test [5] it was 0.17 µM; in test [6], 0.0887 µM. Further, the GI50 in test [7] was 0.0228 µM. The TGI in test [2] came out at 0.318 µM; in test [3] it was 1.5 µM; in test [4], 3.9 µM; in test [5], 1.71 µM; in test [6], 0.6 µM; in test [7] it was 0.79 µM.
Turning to `O=C(N/N=C/c1ccc2c(c1)CCC2)c1ccccc1O`, the TGI in test [1] is more than 100 µM; in test [2], 30 µM; in test [3], more than 100 µM; in test [4] it was 51.9 µM; in test [5], 44.7 µM; in test [6], 71 µM. Moreover, in test [7], the TGI turned out to be 50.7 µM.
